Reference: publication PMC3384297 (2012)

Experiments:
Test in all cases: FRET melting
[1] = tested on: F21D (DNA, G4) GGGTTAGGGTTAGGGTTAGGG; conditions: 5 mM K+, 95 mM Li+; 10 mM lithium cacodylate pH 7.2; 0.2 µM DNA, 1 µM porphyrin
[2] = tested on: FGD (DNA, G4) GGGTGTGGGTGTGGGTGTGGG; conditions: 5 mM K+, 95 mM Li+; 10 mM lithium cacodylate pH 7.2; 0.2 µM DNA, 1 µM porphyrin
[3] = tested on: F21D (DNA, G4) GGGTTAGGGTTAGGGTTAGGG; conditions: 5 mM K+, 95 mM Li+; 10 mM Li cacodylate pH 7.2; 0.2 µM DNA, 1 µM NMM
[4] = tested on: FGD (DNA, G4) GGGTGTGGGTGTGGGTGTGGG; conditions: 5 mM K+, 95 mM Li+; 10 mM Li cacodylate pH 7.2; 0.2 µM DNA, 1 µM NMM

ΔT1/2 [1] [°C] | ΔT1/2 [2] [°C] | ΔT1/2 [3] [°C] | ΔT1/2 [4] [°C] | SMILES
0.2 ± 0.3 | 0.2 ± 0.3 | – | – | C=CC1=C(C)c2cc3[nH]c(cc4nc(cc5[nH]c(cc1n2)c(C)c5CCC(=O)O)C(CCC(=O)O)=C4C)c(C)c3C=C
8.5 ± 0.6 | 9.8 ± 0.3 | – | – | C=Cc1c(C)c2cc3c(C=C)c(C)c(cc4nc(cc5nc(cc1[nH]2)C(C)=C5CCC(=O)O)C(CCC(=O)O)=C4C)n3C
0.2 ± 0.3 | 0.8 ± 0.3 | – | – | CCC1=C(C)c2cc3[nH]c(cc4nc(cc5[nH]c(cc1n2)c(C)c5CC)C(C)=C4CCC(=O)O)c(CCC(=O)O)c3C
– | – | 14 ± 2 | 12.5 ± 0.3 | CCc1c(C)c2cc3nc(cc4nc(cc5c(CC)c(C)c(cc1[nH]2)n5C)C(C)=C4CCC(=O)O)C(CCC(=O)O)=C3C
23 ± 1 | 22.1 ± 0.9 | – | – | C[n+]1ccc(-c2c3nc(c(-c4cc[n+](C)cc4)c4ccc([n-]4)c(-c4cc[n+](C)cc4)c4nc(c(-c5cc[n+](C)cc5)c5ccc2[n-]5)C=C4)C=C3)cc1.[Zn+2]
34 ± 2 | 31 ± 2 | – | – | C[n+]1ccc(-c2c3nc(c(-c4cc[n+](C)cc4)c4ccc([nH]4)c(-c4cc[n+](C)cc4)c4nc(c(-c5cc[n+](C)cc5)c5ccc2[nH]5)C=C4)C=C3)cc1
